Key:
late watergrass = test: Test Example 2: herbicidal activity, application during weed generation under submerged conditions (Table 17, symbol A); type: in vivo, late watergrass (Echinochloa oryzicola); conditions: AAH 320 g/ha; application during weed generation, submerged conditions
How it was run: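 3-wk visual-criteria score after one water-surface dose. Emulsion formulation, water-diluted to set rate; applied at 1–2 leaf stage; alluvial soil, 4 cm standing water; seeds co-sown; greenhouse 25–30° C.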

wild oat [1] = test: Test Example 4: herbicidal effect by soil treatment (Table 19, symbol I); type: in vivo, wild oat (Avena fatua); conditions: for herbicidal effect rating, I: wild oat: amount of applied herbicide 320 g/ha
How it was run: (§1)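 Soil-surface application: an emulsion agent diluted with water to the predetermined dose is sprayed uniformly over seeds lying under roughly 1.5 cm of sterilized diluvial soil. Boxes stay in a greenhouse at 25° C. to 30° C. Three weeks later, each species is graded on previously defined criteria.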

barnyard grass [2] = test: Test Example 4: herbicidal effect by soil treatment (Table 19, symbol H); type: in vivo, barnyard grass (Echinochloa crus-galli); conditions: for herbicidal effect rating, H: barnyard grass: amount of applied herbicide 320 g/ha
How it was run: as §1

windgrass [3] = test: Test Example 4: herbicidal effect by soil treatment (Table 19, symbol L); type: in vivo, windgrass (Apera spica-venti); conditions: for herbicidal effect rating, L: windgrass: amount of applied herbicide 320 g/ha
How it was run: as §1

Japanese bulrush = test: Test Example 1: herbicidal activity, application before weed generation under submerged conditions (Table 16, symbol B); type: in vivo, Japanese bulrush (Schoenoplectus juncoides); conditions: 320 g/ha applied herbicide
How it was run: (§2)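 Emulsion formulation, water-diluted to set dose, was put onto the flooded surface (4 cm depth, alluvial soil) the same day weeds were sown and 2.5-leaf rice transplanted. After 3 weeks at 25-30 °C under glass, each species was rated 0 (≤5% kill) to 5 (≥90% kill).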

oval-leafed pondweed = test: Test Example 1: herbicidal activity, application before weed generation under submerged conditions (Table 16, symbol C); type: in vivo, oval-leafed pondweed (Monochoria vaginalis); conditions: 320 g/ha applied herbicide
How it was run: as §2

Chinese sprangletop = test: Test Example 3: herbicidal effect by foliage application, Wagner pot (Table 18, symbol D); type: in vivo, chinese sprangletop (Leptochloa chinensis); conditions: 320 g/ha
How it was run: (§3)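 Plants were sown in alluvial soil held under 0.1–0.5 cm standing water and grown 14 days in a greenhouse at 25–30 °C. An emulsifiable formulation, water-diluted to the set dose, was then sprayed onto the foliage, and effects were scored three weeks later using previously defined criteria.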

velvetleaf [4] = test: Test Example 4: herbicidal effect by soil treatment (Table 19, symbol M); type: in vivo, velvetleaf (Abutilon theophrasti); conditions: for herbicidal effect rating, M: velvetleaf: amount of applied herbicide 320 g/ha
How it was run: as §1

green foxtail = test: Test Example 5: herbicidal effect by foliage application, plastic box (Table 20, symbol G); type: in vivo, green foxtail (Setaria viridis); conditions: foliage application, AAH 320 g/ha, three weeks after application
How it was run: (§4)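 Sow seeds spot-wise in sterilized diluvial soil; cover with ~1.5 cm soil. Grow 14 days in greenhouse, 25° C. to 30° C. Spray foliage with emulsion diluted to predetermined amount. Rate effect after 3 weeks.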

windgrass [5] = test: Test Example 5: herbicidal effect by foliage application, plastic box (Table 20, symbol L); type: in vivo, windgrass (Apera spica-venti); conditions: foliage application, AAH 320 g/ha, three weeks after application
How it was run: as §4

blackgrass = test: Test Example 5: herbicidal effect by foliage application, plastic box (Table 20, symbol J); type: in vivo, blackgrass (Alopecurus myosuroides); conditions: foliage application, AAH 320 g/ha, three weeks after application
How it was run: as §4

rice flat sedge = test: Test Example 3: herbicidal effect by foliage application, Wagner pot (Table 18, symbol E); type: in vivo, rice flat sedge (Cyperus iria); conditions: 320 g/ha
How it was run: as §3

chickweed = test: Test Example 5: herbicidal effect by foliage application, plastic box (Table 20, symbol P); type: in vivo, common chickweed (Stellaria media); conditions: foliage application, AAH 320 g/ha, three weeks after application
How it was run: as §4

lambsquarters = test: Test Example 4: herbicidal effect by soil treatment (Table 19, symbol O); type: in vivo, lambsquarters (Chenopodium album); conditions: for herbicidal effect rating, O: lambsquarters: amount of applied herbicide 320 g/ha
How it was run: as §1

wild oat [6] = test: Test Example 5: herbicidal effect by foliage application, plastic box (Table 20, symbol I); type: in vivo, wild oat (Avena fatua); conditions: foliage application, AAH 320 g/ha, three weeks after application
How it was run: as §4

barnyard grass [7] = test: Test Example 3: herbicidal effect by foliage application, Wagner pot (Table 18, symbol H); type: in vivo, barnyard grass (Echinochloa crus-galli); conditions: 320 g/ha
How it was run: as §3

velvetleaf [8] = test: Test Example 5: herbicidal effect by foliage application, plastic box (Table 20, symbol M); type: in vivo, velvetleaf (Abutilon theophrasti); conditions: foliage application, AAH 320 g/ha, three weeks after application
How it was run: as §4

| Structure (SMILES) | herbicidal effect rating, A: late watergrass (late watergrass) | herbicidal effect rating, I: wild oat (wild oat [1]) | herbicidal effect rating, H: barnyard grass (barnyard grass [2]) | herbicidal effect rating, L: windgrass (windgrass [3]) | Herbicidal effect on B: Japanese bulrush (grade 0-5) (Japanese bulrush) | Herbicidal effect on C: oval-leafed pondweed (grade 0-5) (oval-leafed pondweed) | herbicidal effect on D (Chinese sprangletop), rating 0-5 (Chinese sprangletop) | herbicidal effect rating, M: velvetleaf (velvetleaf [4]) | G: green foxtail, herbicidal effect (green foxtail) | L: windgrass, herbicidal effect (windgrass [5]) | J: blackgrass, herbicidal effect (blackgrass) | herbicidal effect on E (rice flat sedge), rating 0-5 (rice flat sedge) | P: chickweed, herbicidal effect (chickweed) | herbicidal effect rating, O: lambsquarters (lambsquarters) | I: wild oat, herbicidal effect (wild oat [6]) | herbicidal effect on H (barnyard grass), rating 0-5 (barnyard grass [7]) | M: velvetleaf, herbicidal effect (velvetleaf [8]) | also measured |
| --- | --- | --- | --- | --- | --- | --- | --- | --- | --- | --- | --- | --- | --- | --- | --- | --- | --- | --- |
| COC(=O)Oc1c(C)nn(C)c(=O)c1-c1c(-c2ccc3c(c2)OCCO3)sc2ccccc12 [1-091] | 3 (Herbicidal rate of 40% or more and less than 70%) | 0 (Herbicidal rate of 5% or less (almost no effect)) | 5 (Herbicidal rate of 90% or more (almost completely withered)) | 0 (Herbicidal rate of 5% or less (almost no effect)) | 4 (Herbicidal rate of 70% or more and less than 90%) | 4 (Herbicidal rate of 70% or more and less than 90%) | 1 (Herbicidal rate of 5% or more and less than 20%) | 5 (Herbicidal rate of 90% or more (almost completely withered)) | 5 (Herbicidal rate of 90% or more (almost completely withered)) | 1 (Herbicidal rate of 5% or more and less than 20%) | 3 (Herbicidal rate of 40% or more and less than 70%) | 5 (Herbicidal rate of 90% or more (almost completely withered)) | 5 (Herbicidal rate of 90% or more (almost completely withered)) | 4 (Herbicidal rate of 70% or more and less than 90%) | 2 (Herbicidal rate of 20% or more and less than 40%) | 5 (Herbicidal rate of 90% or more (almost completely withered)) | 5 (Herbicidal rate of 90% or more (almost completely withered)) |  |
| Cc1nn(C)c(=O)c(-c2c(-c3ccc4c(c3)OCCO4)sc3ccccc23)c1OC(=O)SC(C)(C)C [1-092] | 3 (Herbicidal rate of 40% or more and less than 70%) | 0 (Herbicidal rate of 5% or less (almost no effect)) | 0 (Herbicidal rate of 5% or less (almost no effect)) | 0 (Herbicidal rate of 5% or less (almost no effect)) | 3 (Herbicidal rate of 40% or more and less than 70%) | 2 (Herbicidal rate of 20% or more and less than 40%) | 1 (Herbicidal rate of 5% or more and less than 20%) | 0 (Herbicidal rate of 5% or less (almost no effect)) | 3 (Herbicidal rate of 40% or more and less than 70%) | 0 (Herbicidal rate of 5% or less (almost no effect)) | 0 (Herbicidal rate of 5% or less (almost no effect)) | 5 (Herbicidal rate of 90% or more (almost completely withered)) | 5 (Herbicidal rate of 90% or more (almost completely withered)) | 0 (Herbicidal rate of 5% or less (almost no effect)) | 0 (Herbicidal rate of 5% or less (almost no effect)) | 4 (Herbicidal rate of 70% or more and less than 90%) | 5 (Herbicidal rate of 90% or more (almost completely withered)) |  |
| Cc1nn(C)c(=O)c(-c2c(-c3ccc4c(c3)CCO4)sc3ccccc23)c1O [1-101] | 3 (Herbicidal rate of 40% or more and less than 70%) | 0 (Herbicidal rate of 5% or less (almost no effect)) | 5 (Herbicidal rate of 90% or more (almost completely withered)) | 4 (Herbicidal rate of 70% or more and less than 90%) | 5 (Herbicidal rate of 90% or more (almost completely withered)) | 5 (Herbicidal rate of 90% or more (almost completely withered)) | 5 (Herbicidal rate of 90% or more (almost completely withered)) | 0 (Herbicidal rate of 5% or less (almost no effect)) | 5 (Herbicidal rate of 90% or more (almost completely withered)) | 5 (Herbicidal rate of 90% or more (almost completely withered)) | 4 (Herbicidal rate of 70% or more and less than 90%) | 5 (Herbicidal rate of 90% or more (almost completely withered)) | 5 (Herbicidal rate of 90% or more (almost completely withered)) | 5 (Herbicidal rate of 90% or more (almost completely withered)) | 3 (Herbicidal rate of 40% or more and less than 70%) | 5 (Herbicidal rate of 90% or more (almost completely withered)) | 5 (Herbicidal rate of 90% or more (almost completely withered)) |  |
| CCCC(=O)Oc1c(C)nn(C)c(=O)c1-c1c(-c2ccc3c(c2)CCO3)sc2ccccc12 [1-102] | 3 (Herbicidal rate of 40% or more and less than 70%) | 1 (Herbicidal rate of 5% or more and less than 20%) | 3 (Herbicidal rate of 40% or more and less than 70%) | 0 (Herbicidal rate of 5% or less (almost no effect)) | 5 (Herbicidal rate of 90% or more (almost completely withered)) | 4 (Herbicidal rate of 70% or more and less than 90%) | 3 (Herbicidal rate of 40% or more and less than 70%) | 1 (Herbicidal rate of 5% or more and less than 20%) | 5 (Herbicidal rate of 90% or more (almost completely withered)) | 0 (Herbicidal rate of 5% or less (almost no effect)) | 0 (Herbicidal rate of 5% or less (almost no effect)) | 5 (Herbicidal rate of 90% or more (almost completely withered)) | 5 (Herbicidal rate of 90% or more (almost completely withered)) | 4 (Herbicidal rate of 70% or more and less than 90%) | 1 (Herbicidal rate of 5% or more and less than 20%) | 4 (Herbicidal rate of 70% or more and less than 90%) | 5 (Herbicidal rate of 90% or more (almost completely withered)) |  |
| CCCC(=O)Oc1c(C)nn(C)c(=O)c1-c1c(-c2ccc(C(C)C)cc2)sc2ccccc12 [1-126] | 2 (Herbicidal rate of 20% or more and less than 40%) |  |  |  | 3 (Herbicidal rate of 40% or more and less than 70%) | 3 (Herbicidal rate of 40% or more and less than 70%) | 5 (Herbicidal rate of 90% or more (almost completely withered)) |  | 2 (Herbicidal rate of 20% or more and less than 40%) | 0 (Herbicidal rate of 5% or less (almost no effect)) | 0 (Herbicidal rate of 5% or less (almost no effect)) | 4 (Herbicidal rate of 70% or more and less than 90%) | 5 (Herbicidal rate of 90% or more (almost completely withered)) |  | 2 (Herbicidal rate of 20% or more and less than 40%) | 5 (Herbicidal rate of 90% or more (almost completely withered)) | 4 (Herbicidal rate of 70% or more and less than 90%) | I: wild oat, herbicidal effect rating (wild oat [1]; AAH 320 g/ha): 0 (Herbicidal rate of 5% or less (almost no effect)); H: barnyard grass, herbicidal effect rating (barnyard grass [2]; AAH 320 g/ha): 0 (Herbicidal rate of 5% or less (almost no effect)); L: windgrass, herbicidal effect rating (windgrass [3]; AAH 320 g/ha): 0 (Herbicidal rate of 5% or less (almost no effect)); M: velvetleaf, herbicidal effect rating (velvetleaf [4]; AAH 320 g/ha): 0 (Herbicidal rate of 5% or less (almost no effect)); O: lambsquarters, herbicidal effect rating (lambsquarters; AAH 320 g/ha): 2 (Herbicidal rate of 20% or more and less than 40%) |

From patent US20230085307A1, “PYRIDAZINONE COMPOUND AND HERBICIDE” (NISSAN CHEMICAL CORPORATION, priority 2019, published 2023)
